Measured values from US6923921B2, “Fluorinated polyether compositions” (3M Innovative Properties Company, priority 2002, dated 2005).

Experiment: Toxicokinetic study with HFPO alcohols: oral absorption and serum elimination (total fluorine in serum)
Parameters: species or system Male Sprague-Dawley rats
Conditions: rat, in vivo, 30 mg/kg
Protocol: The objective of this study was to assess the oral absorption and serum elimination half-life of six hexafluoropropylene oxide (HFPO)-alcohol oligomers (CF3CF2CF2O(CF(CF3)CF2O)xCF(CF3)C(O)N(H)CH2CH2OH), or mixtures thereof, in rats. Male Sprague-Dawley rats (N=4 to 6 rats per dose group) received a single 30 mg/kg dose of the various HFPO alcohol oligomers in propylene glycol by oral gavage at a volume of 5 ml/kg. Necropsies were performed on day one and day four post dose.
Serum samples obtained at necropsy were analyzed for total fluorine based on published methods (1) using an Antek 9000F Fluoride Analysis System. The method was based on oxy-pyrohydrolysis at 1050° C., whereby the C—F bond is broken and the resulting product, hydrogen fluoride (HF), is trapped in a buffer solution and measured with the fluoride ion electrode. The total fluorine levels obtained by this method reflect the total organic fluorine in the serum samples and are reported in Table 2.

| Substance | Amount of Total F ppm (SD) in serum, Day 1 Post-Dose | Amount of Total F ppm (SD) in serum, Day 4 Post-Dose | apparent half-life serum fluorine levels |
| --- | --- | --- | --- |
| CF3CF2CF2O(CF(CF3)CF2O)xCF(CF3)C(O)N(H)CH2CH2OH [Example 2] | 0.15 (0.00) ppm | 0.15 (0.00) ppm |  |
| CF3CF2CF2O(CF(CF3)CF2O)xCF(CF3)C(O)N(H)CH2CH2OH [Example 3] | 0.15 (0.00) ppm | 0.15 (0.00) ppm |  |
| CF3CF2CF2O(CF(CF3)CF2O)xCF(CF3)C(O)N(H)CH2CH2OH [Example C1] | 7.55 (1.34) ppm | 3.90 (0.00) ppm | approximately four |
